Reference: US9267116B2, “Amino acid dehydrogenase, and process for producing L-amino acid, 2-oxo acid or D-amino acid” (KANEKA CORPORATION, priority 2008, dated 2016)

Columns and labels:
[1] = biological target: Bacillus sphaericus-derived phenylalanine dehydrogenase (Lysinibacillus sphaericus, UniProt P23307); conditions: cited from earlier work
[2] = tested on: amino acid dehydrogenase; assay: Substrate specificity of the purified amino acid dehydrogenase (reductive amination of 2-oxo acids); type: biochemical, Rhodococcus qingshengii strain KNK2108; conditions: activity for phenylpyruvic acid = 100%; 30° C., pH 9.0; naphthylpyruvic and indolepyruvic acid by HPLC of the product formed in 30 minutes
Method: In the embodiments, the amino acid dehydrogenase activity of the polypeptide can be measured, for example, based on the rate of decline in the absorbance at a wavelength of 340 nm when 1.2 mL of 0.5 M NH3/NH4Cl buffer (pH 9.0), 0.2 mL of 0.1 M sodium carbonate buffer (pH 9.0) containing 3 mM NADH coenzyme, and 0.1 mL of an appropriately diluted enzyme solution are added to 1.5 mL of 0.1 M sodium carbonate buffer (pH 9.0) containing 10 mM phenylpyruvic acid as substrate and a reaction is run for 1 minute at 30° C. In the embodiments, the amino acid dehydrogenase activity was measured using this method unless indicated otherwise.
The activity of the amino acid dehydrogenase was measured based on the rate of decline in the absorbance at a wavelength of 340 nm when 1.2 mL of 0.5 M NH3/NH4Cl buffer (pH 9.0), 0.2 mL of 0.1 M sodium carbonate buffer (pH 9.0) that contained 3 mM NADH coenzyme, and 0.1 mL of the appropriately diluted enzyme solution were added to 1.5 mL of 0.1 M sodium carbonate buffer (pH 9.0) that contained 10 mM phenylpyruvic acid substrate and a reaction was carried out for 1 minute at 30° C. 1 unit is defined here as the quantity of enzyme that consumed 1 μmol NADH in 1 minute. The protein was quantified by the Bradford method using BSA as the reference protein.
The substrate specificity of the purified amino acid dehydrogenase was investigated. The enzyme activity was measured by using each substrate in place of the phenylpyruvic acid substrate in the procedure previously described for measuring the enzyme activity. In the case of the enzyme activity for naphthylpyruvic acid, 100 μL of the appropriately diluted enzyme solution was added to 100 μL of 0.1 M sodium carbonate buffer (pH 9.0) that contained 1.0 mg naphthylpyruvic acid, 12.3 mg ammonium sulfate, and 6.1 mg NADH and the increment in the 2-naphthylalanine produced in 30 minutes at 30° C. was determined by quantitation by HPLC. The HPLC analysis was run using the following: column: COSMOSIL 5C18-ARII (4.6 mm×250 mm, Nacalai Tesque, Inc.), eluent: 10 mM potassium phosphate buffer (pH 2.0)/acetonitrile=5/1, flow rate: 1.0 mL/min, column temperature: 40° C., detection: 210 nm. Here, 1 unit is defined as the quantity of enzyme that produces 1 μmol 2-naphthylalanine in 1 minute. In the case of the enzyme activity for indolepyruvic acid, 100 μL of the appropriately diluted enzyme solution was added to 100 μL of 0.1 M sodium carbonate buffer (pH 9.0) that contained 2.0 mg indolepyruvic acid, 26.0 mg ammonium sulfate, and 7.6 mg NADH and the increment in the L-tryptophan produced in 30 minutes at 30° C. was determined by quantitation by HPLC. The HPLC analysis was run using the following: column: CROWNPAK CR—(4.6 mm×150 mm, Daicel Chemical Industries, Ltd.), eluent: aqueous HClO4 (pH 2.0), flow rate: 1.0 mL/min, column temperature: 30° C., detection: 210 nm. Here, 1 unit is defined as the quantity of enzyme that produces 1 μmol L-tryptophan in 1 minute.

[3] = tested on: Microbacterium sp.-derived phenylalanine dehydrogenase; conditions: cited from earlier work
[4] = tested on: Rhodococcus maris-derived phenylalanine dehydrogenase; conditions: cited from earlier work
[5] = biological target: Rhodococcus sp.-derived phenylalanine dehydrogenase (Rhodococcus sp, UniProt Q59771); conditions: cited from earlier work
Chain of Rhodococcus sp.-derived phenylalanine dehydrogenase (Q59771 whole entry): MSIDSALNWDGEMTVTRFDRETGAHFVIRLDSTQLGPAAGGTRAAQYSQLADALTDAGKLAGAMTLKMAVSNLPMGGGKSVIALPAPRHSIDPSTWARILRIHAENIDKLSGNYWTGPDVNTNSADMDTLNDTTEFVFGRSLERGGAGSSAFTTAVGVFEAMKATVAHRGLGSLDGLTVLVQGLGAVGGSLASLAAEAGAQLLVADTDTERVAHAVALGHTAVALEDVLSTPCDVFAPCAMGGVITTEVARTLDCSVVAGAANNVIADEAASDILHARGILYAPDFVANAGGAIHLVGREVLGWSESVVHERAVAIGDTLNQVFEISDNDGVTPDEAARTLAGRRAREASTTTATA

[6] = biological target: T1, Sporosarcina ureae-derived phenylalanine dehydrogenase (Sporosarcina ureae, UniProt P97014); conditions: cited from earlier work
T1 sequence (P97014 1-379): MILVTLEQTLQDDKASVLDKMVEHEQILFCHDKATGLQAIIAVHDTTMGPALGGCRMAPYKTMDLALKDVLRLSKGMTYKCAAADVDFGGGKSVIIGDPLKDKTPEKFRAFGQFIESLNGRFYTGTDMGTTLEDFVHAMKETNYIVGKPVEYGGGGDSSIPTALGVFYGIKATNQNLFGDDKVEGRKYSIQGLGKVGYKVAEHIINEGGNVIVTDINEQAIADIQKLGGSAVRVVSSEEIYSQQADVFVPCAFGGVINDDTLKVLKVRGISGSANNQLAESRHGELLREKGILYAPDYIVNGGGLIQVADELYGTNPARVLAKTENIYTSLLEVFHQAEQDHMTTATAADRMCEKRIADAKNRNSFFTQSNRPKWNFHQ

[7] = biological target: Thermoactinomyces intermedius-derived phenylalanine dehydrogenase (Thermoactinomyces intermedius, UniProt P22823); conditions: cited from earlier work
Chain of Thermoactinomyces intermedius-derived phenylalanine dehydrogenase (P22823 whole entry): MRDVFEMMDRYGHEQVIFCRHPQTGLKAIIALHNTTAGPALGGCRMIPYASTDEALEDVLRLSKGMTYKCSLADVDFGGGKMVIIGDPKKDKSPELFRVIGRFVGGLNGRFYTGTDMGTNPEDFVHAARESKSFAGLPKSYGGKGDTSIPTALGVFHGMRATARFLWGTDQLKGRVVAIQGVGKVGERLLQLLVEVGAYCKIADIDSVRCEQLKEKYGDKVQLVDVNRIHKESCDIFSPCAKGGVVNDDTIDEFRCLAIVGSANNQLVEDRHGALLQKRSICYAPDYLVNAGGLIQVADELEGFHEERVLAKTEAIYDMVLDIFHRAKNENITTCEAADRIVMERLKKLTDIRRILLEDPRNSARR

Chain of Bacillus sphaericus-derived phenylalanine dehydrogenase (P23307 whole entry): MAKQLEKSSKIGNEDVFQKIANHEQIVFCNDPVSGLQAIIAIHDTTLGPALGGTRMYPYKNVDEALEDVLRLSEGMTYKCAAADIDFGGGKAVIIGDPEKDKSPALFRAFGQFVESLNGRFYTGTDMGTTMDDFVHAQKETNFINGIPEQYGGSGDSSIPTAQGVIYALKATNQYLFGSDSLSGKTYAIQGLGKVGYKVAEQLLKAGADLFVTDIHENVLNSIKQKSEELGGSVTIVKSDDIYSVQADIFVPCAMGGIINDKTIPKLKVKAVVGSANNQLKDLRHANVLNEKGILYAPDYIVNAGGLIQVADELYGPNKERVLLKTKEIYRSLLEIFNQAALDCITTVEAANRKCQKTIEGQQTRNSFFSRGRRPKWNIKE

| Compound | enzymatic activity taking the enzymatic activity for phenylpyruvic acid to be 100 [1] | Relative activity (%) [2] [%] | further results |
| --- | --- | --- | --- |
| O=C(O)C(=O)CCc1ccccc1 [Homophenylpyruvic acid] | 3.4 | 19.1 | enzymatic activity taking the enzymatic activity for phenylpyruvic acid to be 100 [3]: 0.1 |
| CSCCC(=O)C(=O)O [2-Oxo-4-(methylthio)butanoic acid] |  | 34.6 | enzymatic activity taking the enzymatic activity for phenylpyruvic acid to be 100 [4]: 9 |
| O=C(O)C(=O)Cc1c[nH]c2ccccc12 [Indolepyruvic acid] | 0.39 | 19.7 | enzymatic activity taking the enzymatic activity for phenylpyruvic acid to be 100 [4]: 5; enzymatic activity taking the enzymatic activity for phenylpyruvic acid to be 100 [5]: 3; enzymatic activity taking the enzymatic activity for phenylpyruvic acid to be 100 [6]: 0.73 |
| CC(C)CC(=O)C(=O)O [2-Oxo-4-methylvaleric acid] |  | 3.5 |  |
| O=C(O)C(=O)Cc1ccccc1 [Phenylpyruvic acid] |  | 100.0 |  |
| Naphthylpyruvic acid | 0.46 | 38.8 |  |
| O=C(O)C(=O)Cc1ccc(O)cc1 [4-Hydroxyphenylpyruvic acid] |  | 96.3 | enzymatic activity taking the enzymatic activity for phenylpyruvic acid to be 100 [7]: 0; enzymatic activity taking the enzymatic activity for phenylpyruvic acid to be 100 [5]: 5 |
